Measurements from article PMC9144902, “Metal(II) Complexes of the Fluoroquinolone Fleroxacin: Synthesis, Characterization and Biological Profile” (Pharmaceutics, 2022).
Like-named read-outs stand apart in the source and are kept apart here.

How the values were obtained:
[1] = system: Bacillus subtilis ATCC 6633; assay: Antimicrobial activity, MIC determination; assay type: cell-based
Method: (§1) The in vitro antimicrobial activity of the compounds was evaluated by determining the minimum inhibitory concentration (MIC) against the Gram-positive microorganisms Staphylococcus aureus ATCC 6538 (S. aureus) and Bacillus subtilis ATCC 6633 (B. subtilis) and the Gram-negative microorganism Xanthomonas campestris ATCC 1395 (X. campestris). The affinity of the compounds for bovine serum albumin (BSA) and human serum albumin (HSA) was studied by fluorescence emission spectroscopy, and the corresponding binding constants were determined. Furthermore, the interaction of the compounds with calf-thymus DNA (CT DNA) was investigated to determine the possible mode of interaction by the following methods: (i) UV–vis spectroscopy (where the DNA-binding constants of the complexes (Kb) were also determined), (ii) DNA-viscosity measurements, (iii) cyclic voltammetry and (iv) competitive DNA-binding studies with the classic intercalator ethidium bromide (EB) performed by fluorescence emission spectroscopy.
(§2) Three bacterial strains, one Gram(−) (X. campestris) and two Gram(+) (S. aureus and B. subtilis), were used in order to test the antimicrobial activity of the compounds.
(§3) The antimicrobial activity of the compounds was evaluated b y determining their respective MIC values towards one Gram–( –) (Xanthomonas campestris ATCC 1395 (X. campestris)) and two Gram–(+) (Staphylococcus aureus ATCC 6538 (S. aureus) and Bacillus subtilis ATCC 6633 (B. subtilis)) bacterial species. Cultures of these microbial strains were grown on a rich selective agar medium and stored at 4°C. The selective media used were Nutrient Agar or Broth for B. subtilis and S. aureus, and Yeast Mold Agar or Broth for X. campestris . Cells picked from the surface of the stored cultures were used to initiate liquid pre–cultures of the same selective medium at an initial turbidity of roughl y 1 McFarland unit. Pre–cultures were incubated for 24 h in a rotar y sh aking incubator and subsequently the y were used to inoculate the test cultures used for the determination of MIC at an initial turbidity of 0.5 McFarland units. The test cultures consisted of Mueller–Hinton broth (Deben Diagnostics Ltd) containing different concentrations of the compounds. Different concentrations were achieved as follows: the compounds were freshly dissolved in DMSO to a concentration of 1 mg/mL and they were diluted with DMSO, using the method of progressive double dilution. Therefore, working solutions with decreasing concentrations of the compounds under investigation were achieved. The working solutions were subsequently diluted to the final desired concentration b y addition to the growth medium at a proportion of 2:98. MIC values were determined as the lowest concentrations of the tested compounds that inhibited visible growth of each respective organism after a 24–h incubation [ S1]. Bacterial growth was determined b y measuring the turbidit y of appropriatel y diluted cultures at 600 nm with reference to equall y diluted sterile growth medium and the inhibition achieved was calculated b y comparing the turbidit y of each culture to the average of the turbidit y of three non–inhibited cultures. All test cultures were grown in triplicates and for the determination of MIC, growth had to be inhibited in at least two cultures of the triplicate. In cubation temperatur e at all stages was 37°C ex cept for X. campestris t h at was cultivated at 28°C [S2]. […]
(§4) The fluorescence spectra of the compounds were recorded under the same experimental conditions and presented a low–intensity emission band in the region 405–410 nm .

[2] = system: Staphylococcus aureus ATCC 6538; assay: Antimicrobial activity, MIC determination; assay type: cell-based
Method: as §1, §2, §3, §4

[3] = system: Xanthomonas campestris ATCC 1395; assay: Antimicrobial activity, MIC determination; assay type: cell-based
Method: as §1, §2, §3, §4

EB–DNA adduct (CT DNA) = assay: Competitive study with EB (EB–DNA fluorescence quenching); assay type: binding, calf; conditions: for Ksv, Stern–Volmer constant: EB–DNA adduct; for ΔI/Io, percentage of EB–DNA fluorescence quenching: [EB] = 20 μM, [DNA] = 26 μM, λexc 540 nm, λem 592 nm; for EB–DNA relative fluorescence emission intensity, % of the initial (I/Io): λemission = 592 nm, final value (up to), Figure S14; for kq, EB–DNA quenching constant: τo = 23 ns
Method: Ethidium bromide is a typical marker of intercalation because it can intercalate between adjacent DNA bases with its planar phenanthridine ring.
The fluorescence emission spectra of the EB–DNA adduct ([EB] = 20 μM, [DNA] = 26 μM) in the absence and presence of the compounds were recorded at increasing amounts of the respective compounds. […] As a conclusion, an intercalative interaction of the complexes with CT DNA can be proposed.
The values of the Stern–Volmer constants (Ksv) for the compounds were calculated using the linear Stern–Volmer equation (Equation (S2)) and were of the order of 10^5 M^−1 (Table 8), indicating tight binding of the complexes with DNA [61]. The Ksv values for the complexes are in the range found for a number of metal(II)–quinolone complexes, and complex 12 presents the highest Ksv value (Ksv = 7.25(±0.30) × 10^5 M^−1) among the compounds studied. In addition, the EB–DNA quenching constants (kq) for the compounds were calculated with Equation (S3), assuming τo = 23 ns as the fluorescence lifetime. The values of kq (Table 8) are much higher than the value of 10^10 M^−1s^−1, indicating a static mechanism of EB–DNA fluorescence quenching induced by the compounds, which can result from the formation of a new adduct apparently consisting of each complex and DNA [61].
In order to determine and confirm the DNA–binding mode of the compounds, a competitive study with EB as an intercalating marker is performed b y fluorescence emission spectroscopy.
Therefo re, the E B–displacing abilit y of the compounds from its EB –DN A conjugate was ex amined.
The DNA–EB adduct was prepared b y addition of 20 μM EB and 26 μM CT DNA in buffer solution (150 mM NaCl and 15 mM trisodium citrate at pH 7.0). The potential intercalation of the compounds between the DNA–bases was studied by the addition of a certain amount of the compound solution into the EB–DNA adduct solution. The influence of the compounds on the EB – DNA solution was monitored through the changes of the fluorescence emission spectra at excitation […]
wavelen gth (λex ) at 540 nm [S3]. […]
room temperature in solution or in the presence of DNA, under the same experimental conditions (λex = 540 nm). Bearing t hat in mind, the observed quenching of the EB–DNA solution is evidentl y associated to the displacement of EB from its EB–DNA adduct.
The quenching effici ency (KSV) for each compound was assessed according to the Stern – Volmer equation: Io =1+ k τ [Q] = 1+ K [Q], (eq. S2) [S3] where I0 and I = the fluorescence […]
emission intensities of EB–DNA in the absence and presence of the quencher, respectivel y, [Q] = the concentration of the quencher (i.e. compounds). KSV is obtained from t he Stern–Volmer plots b y the slope of the diagram I0/ I versus [Q]. Taking τ0 = 23 ns as the fluorescence lifetime of the EB– DNA s ystem [S5], the EB –DNA quenching constants (k q) of the compounds can be determined accordin g to eq.S3: K SV = kqτo . […]
[S2] Irgi, E.P.; Geromichalos, G.D.; Balala, S.; Kljun, J.; Kalogiannis, S.; Papadopoulos, A.; Turel, I.; Psomas, G. Cobalt(II) complexes with quinolone antimicrobial drug oxolinic acid: […]
[ S 5] Heller, D.P.; Greenstock, C.L. Fluorescence lifetime analysis of DNA intercalated ethidium bromide and quenching by free d ye. Biophys. Chem . 1994, 50, 305–312.

[4] = molecular target: T1, bovine serum albumin (BSA) (Bos taurus, UniProt P02769); assay: Albumin binding by tryptophan fluorescence emission quenching; conditions: for kq(BSA), BSA-quenching constant / K(BSA), BSA-binding constant: BSA 3 μM; for kq(BSA), BSA-quenching constant: buffer pH 7.0, λexc 295 nm, Stern–Volmer, τ0 = 10^–8 s; for BSA fluorescence, % of the initial fluorescence intensity (I/Io): λem,max = 342 nm, final value of titration (Figure S11); for K(BSA), BSA-binding constant: buffer pH 7.0, Scatchard equation
T1 construct: purchased
Method: (§5) Serum albumins (Sas) are the most abundant serum proteins and play a role in the circulatory system, primarily in the transport of drugs and other bioactive small molecules through the bloodstream.
(§6) The SA-quenching constants (kq) for the compounds (Table 5) were calculated with the Stern–Volmer quenching equation (Equations (S2) and (S3)).
(§7) Albumin-binding constants (K) were calculated using the Scatchard equation (Equation (S4)). […]
(§8) S2. Interaction with serum albumins
(§9) The albumin–binding study for the compounds was carried out b y fluorescence emission

[5] = molecular target: T2, human serum albumin (HSA) (Homo sapiens, UniProt P02768); assay: as above; conditions: for kq(HSA), HSA-quenching constant / K(HSA), HSA-binding constant: HSA 3 μM; for kq(HSA), HSA-quenching constant: buffer pH 7.0, λexc 295 nm, Stern–Volmer, τ0 = 10^–8 s; for HSA fluorescence, % of the initial fluorescence intensity (I/Io): λem,max = 351 nm, final value of titration (Figure S10); for K(HSA), HSA-binding constant: buffer pH 7.0, Scatchard equation
T2 construct: purchased
Method: as §5, §6, §7, §8, §9

[6] = B. subtilis, 24-h incubation, 37°C
[7] = S. aureus, 24-h incubation, 37°C
[8] = X. campestris, 24-h incubation, 28°C

T2 sequence (P02768 25-609): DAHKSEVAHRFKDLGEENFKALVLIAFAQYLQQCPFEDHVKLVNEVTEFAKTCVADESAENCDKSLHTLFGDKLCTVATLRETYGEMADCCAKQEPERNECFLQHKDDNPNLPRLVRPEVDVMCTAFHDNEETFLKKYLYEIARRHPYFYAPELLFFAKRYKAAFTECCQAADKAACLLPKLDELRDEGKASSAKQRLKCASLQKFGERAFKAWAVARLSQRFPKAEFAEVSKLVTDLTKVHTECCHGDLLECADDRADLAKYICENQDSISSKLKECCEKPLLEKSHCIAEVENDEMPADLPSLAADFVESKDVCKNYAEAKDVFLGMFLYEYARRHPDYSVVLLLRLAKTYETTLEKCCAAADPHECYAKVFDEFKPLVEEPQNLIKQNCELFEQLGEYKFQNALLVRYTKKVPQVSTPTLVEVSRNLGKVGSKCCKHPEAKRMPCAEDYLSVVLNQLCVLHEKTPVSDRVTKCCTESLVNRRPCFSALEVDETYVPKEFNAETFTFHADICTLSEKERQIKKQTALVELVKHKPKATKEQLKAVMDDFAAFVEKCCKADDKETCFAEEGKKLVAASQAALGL
T1 sequence (P02769 25-607): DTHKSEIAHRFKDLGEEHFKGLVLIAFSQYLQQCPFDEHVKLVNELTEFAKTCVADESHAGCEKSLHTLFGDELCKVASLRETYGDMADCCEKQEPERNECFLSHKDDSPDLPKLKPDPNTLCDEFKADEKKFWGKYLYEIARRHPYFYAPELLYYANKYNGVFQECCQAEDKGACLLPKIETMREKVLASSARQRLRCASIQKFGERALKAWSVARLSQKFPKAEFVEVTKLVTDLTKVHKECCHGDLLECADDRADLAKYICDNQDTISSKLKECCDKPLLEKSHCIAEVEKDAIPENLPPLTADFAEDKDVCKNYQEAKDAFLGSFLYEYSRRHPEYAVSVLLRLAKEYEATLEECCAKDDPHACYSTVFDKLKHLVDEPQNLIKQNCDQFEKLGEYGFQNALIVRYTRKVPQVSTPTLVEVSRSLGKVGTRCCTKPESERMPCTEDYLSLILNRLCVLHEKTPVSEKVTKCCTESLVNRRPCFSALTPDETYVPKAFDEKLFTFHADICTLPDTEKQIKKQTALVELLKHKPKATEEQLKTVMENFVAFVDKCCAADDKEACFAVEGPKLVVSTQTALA

Row | SMILES | Ksv, Stern–Volmer constant (EB–DNA adduct (CT DNA)) | ΔI/Io, percentage of EB–DNA fluorescence quenching (EB–DNA adduct (CT DNA)) | EB–DNA relative fluorescence emission intensity, % of the initial (I/Io) (EB–DNA adduct (CT DNA)) | kq, EB–DNA quenching constant (EB–DNA adduct (CT DNA)) | kq(BSA), BSA-quenching constant [4] | BSA fluorescence, % of the initial fluorescence intensity (I/Io) [4] | kq(HSA), HSA-quenching constant [5] | HSA fluorescence, % of the initial fluorescence intensity (I/Io) [5] | MIC [1, 6] | MIC (values in parentheses) [1, 6] | MIC [2, 7] | MIC (values in parentheses) [2, 7] | MIC [3, 8] | MIC (values in parentheses) [3, 8] | K(BSA), BSA-binding constant [4] | K(HSA), HSA-binding constant [5] | also measured
1 | CN1CCN(c2c(F)cc3c(=O)c(C(=O)O)cn(CCF)c3c2F)CC1 [Fleroxacin, 6,8-difluoro-1-(2–fluoroethyl)-7-(4-methylpiperazin-1-yl)-4-oxoquinoline-3-carboxylic acid] | 4.64(±0.14) × 10^5 M^–1 | 65.8% | 34.2% | 2.02(±0.06) × 10^13 M^−1s^−1 | 6.19(±0.23) × 10^12 M^−1s^−1 | 47.5% | 2.69(±0.11) × 10^12 M^−1s^−1 | 66.5% | – | – | – | – | – | – | – | – | MIC ([1]; Bacillus subtilis, ATCC6633, 24 h): 4 µg/mL; MIC ([1]; Bacillus subtilis, ATCC6633, 24 h, read-out: MIC (values in parentheses)): 10.8 µM; MIC ([2]; Staphylococcus aureus, ATCC6538, 24 h): 4 µg/mL; MIC ([2]; Staphylococcus aureus, ATCC6538, 24 h, read-out: MIC (values in parentheses)): 10.8 µM; MIC ([3]; Xanthomonas campestris, ATCC1395, 24 h): 8 µg/mL; MIC ([3]; Xanthomonas campestris, ATCC1395, 24 h, read-out: MIC (values in parentheses)): 21.7 µM; Kd [4]: 30.5 µM; Kd [5]: 15.2 µM
2 | CN1CCN(c2c(F)cc3c(=O)c(C(=O)[O-])cn(CCF)c3c2F)CC1.CN1CCN(c2c(F)cc3c(=O)c(C(=O)[O-])cn(CCF)c3c2F)CC1.CO.CO.[Zn+2] [complex 3, [Zn(flrx)2(MeOH)2]] | 6.07(±0.17) × 10^5 M^–1 | 85.9% | 14.1% | 2.64(±0.07) × 10^13 M^−1s^−1 | 4.55(±0.21) × 10^13 M^−1s^−1 | 10.8% | 2.26(±0.10) × 10^13 M^−1s^−1 | 19.8% | 8 µg/mL | 9.2 µM | 8 µg/mL | 9.2 µM | 32 µg/mL | 36.8 µM | 1.86(±0.08) × 10^5 M^−1 | 6.15(±0.25) × 10^4 M^−1 | –
3 | CN1CCN(c2c(F)cc3c(=O)c(C(=O)[O-])cn(CCF)c3c2F)CC1.CN1CCN(c2c(F)cc3c(=O)c(C(=O)[O-])cn(CCF)c3c2F)CC1.[Zn+2].c1ccc(-c2ccccn2)nc1 [complex 12, [Zn(flrx)2(bipy)]] | 7.25(±0.30) × 10^5 M^–1 | 88.6% | 11.4% | 3.15(±0.13) × 10^13 M^−1s^−1 | 1.74(±0.08) × 10^13 M^−1s^−1 | 14.1% | 1.24(±0.04) × 10^13 M^−1s^−1 | 25.9% | 8 µg/mL | 8.3 µM | 8 µg/mL | 8.3 µM | 16 µg/mL | 16.7 µM | 7.89(±0.33) × 10^4 M^−1 | 1.04(±0.06) × 10^5 M^−1 | –
4 | CN1CCN(c2c(F)cc3c(=O)c(C(=O)[O-])cn(CCF)c3c2F)CC1.CN1CCN(c2c(F)cc3c(=O)c(C(=O)[O-])cn(CCF)c3c2F)CC1.[Zn+2].c1ccc(Nc2ccccn2)nc1 [complex 13, [Zn(flrx)2(bipyam)]] | 6.51(±0.19) × 10^5 M^–1 | 81.8% | 18.2% | 2.84(±0.08) × 10^13 M^−1s^−1 | 3.37(±0.14) × 10^13 M^−1s^−1 | 14.6% | 1.23(±0.05) × 10^13 M^−1s^−1 | 27.9% | 4 µg/mL | 4.1 µM | 8 µg/mL | 8.2 µM | 16 µg/mL | 16.4 µM | 3.60(±0.14) × 10^4 M^−1 | 3.69(±0.14) × 10^4 M^−1 | –
